Laboratory results published in US20090041839A1, “PHARMACEUTICAL COMPOSITIONS FOR THE TREATMENT OF PAIN” (priority 2007, published 2009).
Where two headings read alike, the source gives them in different places.

Experiments:
[1] = Single escalating dose, age and food-effect pharmacokinetic study of T-62 soft gelatin capsules (Example 11); type: in vivo; conditions: human, plasma, po; for AUC(0-inf) / Cmax / AUC(0-t): arithmetic mean (SD); for AUC(0-t): read-out: AUC0-48; for Tmax: median
Description: A single-center, 3-part study: Parts A and B were randomized, double-blind, and placebo-controlled, and evaluated the safety, tolerability, and pharmacokinetics of single, escalating dose levels of a T-62 composition in soft gelatin capsules (oral dosage form 4) in young healthy subjects (Part A), and a single dose of a T-62 composition in soft gelatin capsules (oral dosage form 4) in elderly healthy subjects (Part B). In Part C, the effect of food on the bioavailability of a single dose of T-62 (oral dosage form 4) in young healthy subjects was evaluated in an open label, randomized, crossover fashion.
Part A: The dose escalation phase of the study consisted of 6 cohorts of 12 young (18-45 years of age) healthy volunteers, a total of 72 subjects, randomly assigned in a 3:1 allocation to receive a single dose of either T-62 or placebo under fasted conditions. For all cohorts, subjects fasted for a minimum of 7 hours pre-dose to 4 hours post-dose. Subjects in the first cohort received a single dose of 100 mg of T-62 (n=9) or placebo (n=3). Subsequent cohorts of 12 new subjects received placebo or a higher dose level of T-62: Nine subjects in each cohort received a total of 2×100, 4×100, 8×100, 10×100 or 12×100 mg capsules of T-62; three subjects per dose level received placebo.
Part B: A total of 15 elderly subjects (≧65 years of age) were randomly assigned in a 4:1 allocation to receive a single dose of 4×100 mg of T-62 (n=12) or placebo (n=3) under fasted conditions, i.e., subjects were fasted for a minimum of 7 hours pre-dose to 4 hours post-dose.
Part C: A single cohort of 16 young (18-45 years of age) healthy volunteers were enrolled to evaluate the effect of food on the bioavailability and pharmacokinetics of a single-dose of 4×100 mg soft gelatin capsules of T-62. Subjects were randomly assigned in a 1:1 allocation to 1 of 2 treatment sequences (i.e., fed/fasted or fasted/fed) in a crossover fashion.
Each subject in Parts A and B completed Screening, Baseline, Treatment, and Follow-Up Phases. The Screening Phase was conducted on an outpatient basis within 30 days, but no less than 3 days, prior to the start of the Baseline Phase. The Baseline Phase consisted of clinical research unit (CRU) admission and final qualification assessments. The Treatment Phase was comprised of dosing, post-treatment safety assessments, and blood collections. Subjects were discharged approximately 50 hours after study drug administration on Day 3. The Follow-Up Phase occurred 2 to 4 days after discharge from the CRU.
Each subject in Part C completed a Screening Phase, Baseline and Treatment Phases for both crossover Dosing Periods I and II, and a single Follow-Up Phase. The Screening Phase was conducted on an outpatient basis within 30 days, but no less than 3 days, prior to the start of the Baseline Phase for Dosing Period I. Each Baseline Phase consisted of CRU admission and final/continuing qualification assessments. Each Treatment Phase was comprised of dosing, post-treatment safety assessments, and blood collections. T-62 was administered and post-treatment assessments were conducted on Day 1 of Dosing Period I. Subjects were discharged approximately 50 hours after study drug administration on Day 3. Following a 3-day washout, subjects crossed over and entered Dosing Period II. Subjects were re-admitted to the CRU one day before T-62 administration in Dosing Period II for Baseline assessments. T-62 was be administered and post-treatment assessments were conducted on Day 1 of Dosing Period II. Subjects were discharged approximately 50 hours after study drug administration on Day 3. The Follow-Up Phase occurred 2 to 4 days after discharge from the CRU following Dosing Period II. For each Dosing period, subjects randomized to receive T-62 under fed conditions were given a high fat breakfast on Day 1 about half an hour prior to dosing. Fasting subjects were not allowed to eat any food beginning a minimum of 7 hours pre-dose to 4 hours post-dose. […]

adenosine A1 receptors = conditions: Li et al. 2003, U.S. Pat. No. 6,248,774 and No. 6,489,356, cited from earlier work
[2] = 100 mg, Part A, young healthy subjects, fasted, single oral dose 100 mg (oral dosage form 4), n = 9
[3] = 200 mg, Part A, young healthy subjects, fasted, single oral dose 2 × 100 mg (oral dosage form 4), n = 9
[4] = 400 mg, Part A, young healthy subjects, fasted, single oral dose 4 × 100 mg (oral dosage form 4), n = 9
[5] = 400 mg, Part B, elderly healthy subjects, fasted, single oral dose 4 × 100 mg (oral dosage form 4), n = 12
[6] = 400 mg, Part C, Fasted, young healthy subjects, single oral dose 4 × 100 mg (oral dosage form 4), n = 14
[7] = 400 mg, Part C, Fed, young healthy subjects, single oral dose 4 × 100 mg (oral dosage form 4), n = 16
[8] = 800 mg, Part A, young healthy subjects, fasted, single oral dose 8 × 100 mg (oral dosage form 4), n = 9
[9] = 1000 mg, Part A, young healthy subjects, fasted, single oral dose 10 × 100 mg (oral dosage form 4), n = 9
[10] = 1200 mg, Part A, young healthy subjects, fasted, single oral dose 12 × 100 mg (oral dosage form 4), n = 9

AUC(0-inf) [1, 2]: 106 ng·h/mL | Cmax [1, 2]: 30 ng/mL | AUC(0-t) [1, 2]: 92.2 ng·h/mL | Tmax [1, 2]: 2 h | AUC(0-inf) [1, 3]: 242 ng·h/mL | Cmax [1, 3]: 47.7 ng/mL | AUC(0-t) [1, 3]: 224 ng·h/mL | Tmax [1, 3]: 1 h | AUC(0-inf) [1, 4]: 557 ng·h/mL | Cmax [1, 4]: 110 ng/mL | AUC(0-t) [1, 4]: 525 ng·h/mL | Tmax [1, 4]: 2 h | AUC(0-inf) [1, 5]: 1290 ng·h/mL | Cmax [1, 5]: 227 ng/mL | AUC(0-t) [1, 5]: 1200 ng·h/mL | Tmax [1, 5]: 1.8 h | AUC(0-inf) [1, 6]: 576 ng·h/mL | Cmax [1, 6]: 95.8 ng/mL | AUC(0-t) [1, 6]: 533 ng·h/mL | Tmax [1, 6]: 2.3 h | AUC(0-inf) [1, 7]: 933 ng·h/mL | Cmax [1, 7]: 154 ng/mL | AUC(0-t) [1, 7]: 884 ng·h/mL | Tmax [1, 7]: 3.5 h | AUC(0-inf) [1, 8]: 1020 ng·h/mL | Cmax [1, 8]: 165 ng/mL | AUC(0-t) [1, 8]: 978 ng·h/mL | Tmax [1, 8]: 3.5 h | AUC(0-inf) [1, 9]: 1460 ng·h/mL | Cmax [1, 9]: 213 ng/mL | AUC(0-t) [1, 9]: 1370 ng·h/mL | Tmax [1, 9]: 3 h | AUC(0-inf) [1, 10]: 1200 ng·h/mL | Cmax [1, 10]: 157 ng/mL | AUC(0-t) [1, 10]: 1110 ng·h/mL | Tmax [1, 10]: 3.5 h
Structure (SMILES): Nc1sc2c(c1C(=O)c1ccc(Cl)cc1)CCCC2 [T-62, (2-amino-4,5,6,7-tetrahydrobenzo[b]thiophen-3-yl)(4-chlorophenyl)-methanone]
Adverse side effects (adenosine A1 receptors; compared with administration of adenosine): devoid of the adverse side effects associated with administration of adenosine | Effect on inflammatory and neuropathic pain (adenosine A1 receptors; orally effective): reduce inflammatory and neuropathic pain
